Data published in ChEMBL document CHEMBL1150976, “The selectivity of protein kinase inhibitors: a further update” (Biochem J, 2007).

Experiments:
[1] = target: T1, Dual specificity tyrosine-phosphorylation-regulated kinase 2 (Homo sapiens) (UniProt Q92630); experiment: Percentage DYRK2 activity remaining in the presence of 3uM inhibitor
T1 sequence (whole entry): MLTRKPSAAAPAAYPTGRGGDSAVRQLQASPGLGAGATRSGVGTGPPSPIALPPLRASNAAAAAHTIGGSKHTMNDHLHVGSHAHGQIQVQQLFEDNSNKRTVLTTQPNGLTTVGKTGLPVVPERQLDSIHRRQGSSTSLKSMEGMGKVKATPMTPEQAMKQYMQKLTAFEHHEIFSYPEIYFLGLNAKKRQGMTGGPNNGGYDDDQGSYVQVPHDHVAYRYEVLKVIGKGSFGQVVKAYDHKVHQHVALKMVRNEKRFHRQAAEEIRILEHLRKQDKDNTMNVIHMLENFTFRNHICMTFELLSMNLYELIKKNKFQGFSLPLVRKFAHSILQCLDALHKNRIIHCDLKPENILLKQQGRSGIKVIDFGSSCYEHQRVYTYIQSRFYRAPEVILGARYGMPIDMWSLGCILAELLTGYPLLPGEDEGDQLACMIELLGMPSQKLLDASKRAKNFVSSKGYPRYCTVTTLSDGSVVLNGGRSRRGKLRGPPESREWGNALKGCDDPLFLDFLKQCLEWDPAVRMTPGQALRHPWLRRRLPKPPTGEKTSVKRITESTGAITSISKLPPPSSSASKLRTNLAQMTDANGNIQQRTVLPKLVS

[2] = target: Cyclin-dependent kinase 2/cyclin A (Homo sapiens) (UniProt P24941+P20248+P78396); experiment: Percentage CDK2-cyclinA activity remaining in the presence of 3uM inhibitor; format: protein-complex assay
[3] = target: T2, Protein kinase C zeta type (Homo sapiens) (UniProt Q05513); experiment: Percentage PKCzeta activity remaining in the presence of 3uM inhibitor
T2 sequence (whole entry): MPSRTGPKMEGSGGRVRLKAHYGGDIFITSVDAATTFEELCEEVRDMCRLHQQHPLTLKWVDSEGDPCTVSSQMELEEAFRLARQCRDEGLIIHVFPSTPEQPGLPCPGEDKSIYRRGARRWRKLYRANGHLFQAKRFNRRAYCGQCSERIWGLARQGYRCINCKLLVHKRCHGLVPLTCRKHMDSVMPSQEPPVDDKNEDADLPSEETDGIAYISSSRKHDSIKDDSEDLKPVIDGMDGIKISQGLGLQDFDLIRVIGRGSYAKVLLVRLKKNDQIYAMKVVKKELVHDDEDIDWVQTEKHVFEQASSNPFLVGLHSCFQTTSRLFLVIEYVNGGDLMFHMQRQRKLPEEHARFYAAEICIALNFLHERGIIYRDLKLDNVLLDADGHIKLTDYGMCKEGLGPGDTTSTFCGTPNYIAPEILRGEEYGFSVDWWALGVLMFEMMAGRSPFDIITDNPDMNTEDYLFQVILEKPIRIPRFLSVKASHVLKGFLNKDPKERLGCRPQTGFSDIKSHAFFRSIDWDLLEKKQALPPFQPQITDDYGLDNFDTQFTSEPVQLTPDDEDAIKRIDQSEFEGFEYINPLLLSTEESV

[4] = target: Proto-oncogene tyrosine-protein kinase Src (Gallus gallus) (UniProt P00523); experiment: Percentage Src activity remaining in the presence of 3uM inhibitor; conditions: filed as antagonist
[5] = target: Mitogen-activated protein kinase 3 (Homo sapiens) (UniProt P27361); experiment: Percentage ERK1 activity remaining in the presence of 3uM inhibitor
[6] = target: Ribosomal protein S6 kinase alpha-5 (Homo sapiens) (UniProt O75582); experiment: Percentage MSK1 activity remaining in the presence of 3uM inhibitor
[7] = target: Mitogen-activated protein kinase 14 (Homo sapiens, UniProt Q16539); experiment: Percentage p38alpha activity remaining in the presence of 3uM inhibitor
[8] = target: T3, Aurora kinase C (Homo sapiens) (UniProt Q9UQB9); experiment: Percentage Aurora C activity remaining in the presence of 3uM inhibitor
T3 sequence (whole entry): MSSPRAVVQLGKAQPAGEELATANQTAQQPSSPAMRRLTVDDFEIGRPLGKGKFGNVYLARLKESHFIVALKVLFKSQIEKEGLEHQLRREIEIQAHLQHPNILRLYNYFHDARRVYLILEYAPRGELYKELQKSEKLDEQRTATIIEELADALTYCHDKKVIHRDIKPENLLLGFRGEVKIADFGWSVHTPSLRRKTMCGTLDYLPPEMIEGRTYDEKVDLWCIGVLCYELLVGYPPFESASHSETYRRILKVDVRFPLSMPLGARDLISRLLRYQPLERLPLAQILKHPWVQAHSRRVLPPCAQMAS

[9] = target: Homeodomain-interacting protein kinase 2 (Homo sapiens) (UniProt Q9H2X6); experiment: Percentage HIPK2 activity remaining in the presence of 2uM inhibitor; conditions: filed as antagonist
[10] = target: Ribosomal protein S6 kinase alpha-3 (Homo sapiens) (UniProt P51812); experiment: Percentage RSK2 activity remaining in the presence of 2uM inhibitor
[11] = target: T4, 3-phosphoinositide-dependent protein kinase 1 (Homo sapiens) (UniProt O15530); experiment: Percentage PDK1 activity remaining in the presence of 2uM inhibitor
T4 sequence (whole entry): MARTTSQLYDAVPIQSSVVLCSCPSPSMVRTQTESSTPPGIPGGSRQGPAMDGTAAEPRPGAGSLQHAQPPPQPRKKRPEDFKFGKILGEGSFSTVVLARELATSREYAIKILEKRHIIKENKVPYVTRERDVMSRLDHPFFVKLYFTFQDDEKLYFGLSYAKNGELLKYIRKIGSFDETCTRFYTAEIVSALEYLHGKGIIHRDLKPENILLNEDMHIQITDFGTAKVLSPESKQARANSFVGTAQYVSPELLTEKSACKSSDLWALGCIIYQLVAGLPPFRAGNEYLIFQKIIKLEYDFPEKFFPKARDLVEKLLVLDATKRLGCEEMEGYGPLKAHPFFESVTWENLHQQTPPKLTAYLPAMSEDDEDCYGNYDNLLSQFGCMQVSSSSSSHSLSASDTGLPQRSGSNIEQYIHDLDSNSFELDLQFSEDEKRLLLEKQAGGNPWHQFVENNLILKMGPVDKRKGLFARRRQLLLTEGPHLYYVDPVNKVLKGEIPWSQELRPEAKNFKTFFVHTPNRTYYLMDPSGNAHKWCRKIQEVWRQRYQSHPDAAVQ

[12] = target: Myosin light chain kinase, smooth muscle (Homo sapiens, UniProt Q15746); experiment: Percentage SmMLCK activity remaining in the presence of 2uM inhibitor
[13] = target: Calcium/calmodulin-dependent protein kinase type 1 (Homo sapiens) (UniProt Q14012); experiment: Percentage CaMK1 activity remaining in the presence of 2uM inhibitor
[14] = target: SRSF protein kinase 1 (Homo sapiens) (UniProt Q96SB4); experiment: Percentage SRPK1 activity remaining in the presence of 2uM inhibitor; conditions: filed as antagonist
[15] = target: Serine/threonine-protein kinase PAK 6 (Homo sapiens) (UniProt Q9NQU5); experiment: Percentage PAK6 activity remaining in the presence of 2uM inhibitor
Chain of Serine/threonine-protein kinase PAK 6 (Homo sapiens) (Q9NQU5 whole entry, looked up): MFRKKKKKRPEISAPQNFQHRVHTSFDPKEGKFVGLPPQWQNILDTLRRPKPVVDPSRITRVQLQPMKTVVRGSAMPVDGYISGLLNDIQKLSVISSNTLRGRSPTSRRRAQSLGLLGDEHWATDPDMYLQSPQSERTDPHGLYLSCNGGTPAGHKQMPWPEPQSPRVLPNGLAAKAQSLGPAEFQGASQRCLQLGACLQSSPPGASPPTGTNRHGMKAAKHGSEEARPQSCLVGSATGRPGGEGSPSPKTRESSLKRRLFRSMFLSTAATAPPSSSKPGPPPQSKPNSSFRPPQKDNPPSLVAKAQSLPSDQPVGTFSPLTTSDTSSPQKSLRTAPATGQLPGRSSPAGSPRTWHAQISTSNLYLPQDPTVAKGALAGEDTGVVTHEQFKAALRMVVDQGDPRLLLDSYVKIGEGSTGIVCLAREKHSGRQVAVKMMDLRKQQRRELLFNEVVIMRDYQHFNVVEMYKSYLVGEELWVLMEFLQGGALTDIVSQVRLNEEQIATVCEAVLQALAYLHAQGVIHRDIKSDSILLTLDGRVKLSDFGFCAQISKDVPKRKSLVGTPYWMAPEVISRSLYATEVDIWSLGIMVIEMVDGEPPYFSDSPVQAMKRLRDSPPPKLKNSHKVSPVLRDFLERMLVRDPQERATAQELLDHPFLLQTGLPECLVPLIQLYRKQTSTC

Chain of Calcium/calmodulin-dependent protein kinase type 1 (Homo sapiens) (Q14012 whole entry, looked up): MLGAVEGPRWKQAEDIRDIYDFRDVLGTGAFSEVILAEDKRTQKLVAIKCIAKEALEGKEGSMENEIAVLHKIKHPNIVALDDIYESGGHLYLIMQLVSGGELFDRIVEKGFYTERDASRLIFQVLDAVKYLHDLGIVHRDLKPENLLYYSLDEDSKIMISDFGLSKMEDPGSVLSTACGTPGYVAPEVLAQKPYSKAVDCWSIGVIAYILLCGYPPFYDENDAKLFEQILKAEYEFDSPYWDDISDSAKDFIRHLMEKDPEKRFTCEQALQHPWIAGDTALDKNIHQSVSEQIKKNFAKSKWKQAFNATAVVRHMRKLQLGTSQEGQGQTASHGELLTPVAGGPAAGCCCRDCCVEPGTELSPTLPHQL
Chain of Ribosomal protein S6 kinase alpha-3 (Homo sapiens) (P51812 whole entry): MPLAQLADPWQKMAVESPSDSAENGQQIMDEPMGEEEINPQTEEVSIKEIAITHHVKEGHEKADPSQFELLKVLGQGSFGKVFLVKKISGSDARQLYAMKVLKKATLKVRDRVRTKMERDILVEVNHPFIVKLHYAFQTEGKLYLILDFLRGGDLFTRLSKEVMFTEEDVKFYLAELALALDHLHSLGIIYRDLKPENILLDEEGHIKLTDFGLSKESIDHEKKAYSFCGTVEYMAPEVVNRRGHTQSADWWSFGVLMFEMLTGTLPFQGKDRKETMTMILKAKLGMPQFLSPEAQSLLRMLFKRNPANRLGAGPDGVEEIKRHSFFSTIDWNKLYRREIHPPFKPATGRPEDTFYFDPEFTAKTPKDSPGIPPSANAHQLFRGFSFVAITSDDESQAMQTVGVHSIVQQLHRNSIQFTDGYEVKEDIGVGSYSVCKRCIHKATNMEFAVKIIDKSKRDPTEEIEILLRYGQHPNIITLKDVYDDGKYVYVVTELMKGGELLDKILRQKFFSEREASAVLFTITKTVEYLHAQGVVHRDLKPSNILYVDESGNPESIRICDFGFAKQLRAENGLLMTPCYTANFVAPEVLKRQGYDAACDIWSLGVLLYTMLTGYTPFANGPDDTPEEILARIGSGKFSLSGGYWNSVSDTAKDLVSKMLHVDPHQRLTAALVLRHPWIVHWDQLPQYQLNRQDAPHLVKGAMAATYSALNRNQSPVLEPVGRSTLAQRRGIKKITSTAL
Chain of Ribosomal protein S6 kinase alpha-5 (Homo sapiens) (O75582 whole entry, looked up): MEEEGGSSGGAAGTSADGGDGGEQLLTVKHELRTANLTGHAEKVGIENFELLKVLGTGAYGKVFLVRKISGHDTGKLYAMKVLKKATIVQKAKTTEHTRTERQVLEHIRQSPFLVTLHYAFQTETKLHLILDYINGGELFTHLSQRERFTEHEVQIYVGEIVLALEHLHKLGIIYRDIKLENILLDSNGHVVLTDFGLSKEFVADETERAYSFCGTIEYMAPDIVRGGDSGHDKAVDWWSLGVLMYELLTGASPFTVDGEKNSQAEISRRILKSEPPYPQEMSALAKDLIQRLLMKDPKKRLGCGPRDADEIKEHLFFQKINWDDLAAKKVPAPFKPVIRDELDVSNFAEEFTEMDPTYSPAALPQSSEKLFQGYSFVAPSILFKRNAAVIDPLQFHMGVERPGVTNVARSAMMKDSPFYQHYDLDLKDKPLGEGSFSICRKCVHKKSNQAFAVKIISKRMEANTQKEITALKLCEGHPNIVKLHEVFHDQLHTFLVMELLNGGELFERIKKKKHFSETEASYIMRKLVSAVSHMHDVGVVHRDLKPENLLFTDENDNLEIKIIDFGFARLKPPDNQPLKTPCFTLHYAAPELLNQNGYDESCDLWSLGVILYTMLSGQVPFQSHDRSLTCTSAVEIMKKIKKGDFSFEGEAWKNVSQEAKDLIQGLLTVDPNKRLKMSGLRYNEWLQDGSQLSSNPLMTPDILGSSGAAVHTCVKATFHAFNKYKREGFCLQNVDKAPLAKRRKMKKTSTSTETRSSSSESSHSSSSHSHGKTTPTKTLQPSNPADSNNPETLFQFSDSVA
Chain of Mitogen-activated protein kinase 3 (Homo sapiens) (P27361 whole entry): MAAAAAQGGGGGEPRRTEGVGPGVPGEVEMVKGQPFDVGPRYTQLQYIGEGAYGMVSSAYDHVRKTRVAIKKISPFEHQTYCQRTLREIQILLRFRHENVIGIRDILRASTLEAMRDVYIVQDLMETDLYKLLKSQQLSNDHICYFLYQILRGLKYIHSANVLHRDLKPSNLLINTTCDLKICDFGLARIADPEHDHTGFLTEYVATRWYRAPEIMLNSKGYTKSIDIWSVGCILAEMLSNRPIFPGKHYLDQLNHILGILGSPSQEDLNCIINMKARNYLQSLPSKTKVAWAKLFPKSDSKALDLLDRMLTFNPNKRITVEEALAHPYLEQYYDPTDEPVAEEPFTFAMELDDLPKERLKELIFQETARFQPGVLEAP
Chain of Mitogen-activated protein kinase 14 (Q16539 whole entry): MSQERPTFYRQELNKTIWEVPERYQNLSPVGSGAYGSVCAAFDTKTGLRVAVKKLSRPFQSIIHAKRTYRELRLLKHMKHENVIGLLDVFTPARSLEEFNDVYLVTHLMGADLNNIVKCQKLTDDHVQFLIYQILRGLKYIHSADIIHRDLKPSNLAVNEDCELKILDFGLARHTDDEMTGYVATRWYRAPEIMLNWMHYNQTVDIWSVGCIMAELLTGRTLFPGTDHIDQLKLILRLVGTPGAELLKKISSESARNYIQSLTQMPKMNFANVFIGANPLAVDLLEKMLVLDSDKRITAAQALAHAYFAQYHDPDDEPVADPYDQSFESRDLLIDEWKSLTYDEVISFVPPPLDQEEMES
Chain of Homeodomain-interacting protein kinase 2 (Homo sapiens) (Q9H2X6 whole entry, looked up): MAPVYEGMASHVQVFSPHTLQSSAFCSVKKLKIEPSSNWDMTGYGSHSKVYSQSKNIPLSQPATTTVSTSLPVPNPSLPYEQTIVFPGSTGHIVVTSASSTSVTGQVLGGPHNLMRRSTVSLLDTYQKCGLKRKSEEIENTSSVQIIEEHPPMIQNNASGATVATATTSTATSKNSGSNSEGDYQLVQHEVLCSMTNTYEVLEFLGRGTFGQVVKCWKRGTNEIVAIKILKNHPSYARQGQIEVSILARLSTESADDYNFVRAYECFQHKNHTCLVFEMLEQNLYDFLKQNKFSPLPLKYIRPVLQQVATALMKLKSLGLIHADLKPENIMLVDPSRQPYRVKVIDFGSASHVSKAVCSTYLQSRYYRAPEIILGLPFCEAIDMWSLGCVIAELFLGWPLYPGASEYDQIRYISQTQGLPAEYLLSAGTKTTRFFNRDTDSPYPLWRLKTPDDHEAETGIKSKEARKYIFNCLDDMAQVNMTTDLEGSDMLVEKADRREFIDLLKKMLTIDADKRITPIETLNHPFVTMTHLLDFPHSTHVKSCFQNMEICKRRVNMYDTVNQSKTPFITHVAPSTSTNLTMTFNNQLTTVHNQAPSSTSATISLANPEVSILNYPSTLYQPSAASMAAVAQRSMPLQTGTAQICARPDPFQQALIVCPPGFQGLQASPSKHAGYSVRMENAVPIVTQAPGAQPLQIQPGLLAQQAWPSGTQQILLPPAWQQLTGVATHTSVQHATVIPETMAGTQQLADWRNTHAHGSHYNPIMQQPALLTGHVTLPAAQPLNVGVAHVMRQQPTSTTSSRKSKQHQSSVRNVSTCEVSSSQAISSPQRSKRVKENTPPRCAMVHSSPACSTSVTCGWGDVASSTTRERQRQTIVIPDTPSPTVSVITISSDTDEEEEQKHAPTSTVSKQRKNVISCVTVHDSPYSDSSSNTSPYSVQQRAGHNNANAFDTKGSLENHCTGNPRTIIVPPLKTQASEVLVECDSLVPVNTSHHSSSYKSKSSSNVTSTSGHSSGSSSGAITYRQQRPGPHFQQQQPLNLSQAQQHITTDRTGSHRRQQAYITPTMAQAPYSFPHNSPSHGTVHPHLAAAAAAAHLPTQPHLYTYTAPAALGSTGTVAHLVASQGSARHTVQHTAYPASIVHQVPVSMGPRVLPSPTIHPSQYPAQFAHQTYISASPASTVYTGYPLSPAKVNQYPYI

Row | Compound | Activity [1] | Activity [2] | Activity [3] | Activity [4] | Activity [5] | Activity [6] | Activity [7] | Activity [8] | Activity [9] | Activity [10] | Activity [11] | Activity [12] | Activity [13] | Activity [14] | Activity [15]
1 | Cc1ccc(-c2c(C(=O)CF)n(CCCO)c3ncnc(N)c23)cc1 | 91% | 80% | 91% | 10% | 92% | 75% | 72% | 75% |  |  |  |  |  |  | 
2 | Cn1cc(C2=C(c3ccc(Cl)cc3Cl)C(=O)NC2=O)c2ccccc21 |  |  |  |  |  |  |  |  | 15% | 67% | 92% | 60% | 96% | 16% | 90%
